# Assay results as given in patent US20100113445A1, “Chemical Compounds” (SMITHKLINE BEECHAM CORPORATION, priority 2007, published 2010).
# Where a name gives a salt, the structure may show the parent alone.
# Biological target: T1, Wee1 (Homo sapiens, UniProt P30291)
# T1 construct: endogenous in cells; host or cells: HeLa cells
# Experiment: Cell assay for Wee1 inhibitory activity (cell-based ELISA of cdc2 phosphorylation)
# Settings: aphidicolin-synchronized Hela cells in G2-M; phospho-cdc2(Tyr15) sandwich ELISA; read-out: pIC50, cell assay for Wee1 inhibitory activity (converted)
# Description: Cell Assay for Wee1 Inhibitory Activity
# Wee1 inhibitory activity can be measured using a cell-based ELISA assay.
# Hela cells are synchronized using aphidicolin, which blocks the entry of cells into S-phase. Cells in G2-M transition phase are then obtained by releasing the cells from aphidicolin treatment for approximately 7-9 hrs. The phosphorylation level of the Wee1 target cdc2 may then be measured by sandwich ELISA using an anti-cdc2 antibody and an anti-phospho-cdc2(Tyr15) antibody. This cell assay was used to calculate a pIC50 for the compounds described in Examples 3, 4, 6-8, 10-12, 15, 17, 18, 21, 23, 25-27, 33, 35, 39, 43, 44, 51, 63, and 99.
# T1 sequence (P30291 whole entry): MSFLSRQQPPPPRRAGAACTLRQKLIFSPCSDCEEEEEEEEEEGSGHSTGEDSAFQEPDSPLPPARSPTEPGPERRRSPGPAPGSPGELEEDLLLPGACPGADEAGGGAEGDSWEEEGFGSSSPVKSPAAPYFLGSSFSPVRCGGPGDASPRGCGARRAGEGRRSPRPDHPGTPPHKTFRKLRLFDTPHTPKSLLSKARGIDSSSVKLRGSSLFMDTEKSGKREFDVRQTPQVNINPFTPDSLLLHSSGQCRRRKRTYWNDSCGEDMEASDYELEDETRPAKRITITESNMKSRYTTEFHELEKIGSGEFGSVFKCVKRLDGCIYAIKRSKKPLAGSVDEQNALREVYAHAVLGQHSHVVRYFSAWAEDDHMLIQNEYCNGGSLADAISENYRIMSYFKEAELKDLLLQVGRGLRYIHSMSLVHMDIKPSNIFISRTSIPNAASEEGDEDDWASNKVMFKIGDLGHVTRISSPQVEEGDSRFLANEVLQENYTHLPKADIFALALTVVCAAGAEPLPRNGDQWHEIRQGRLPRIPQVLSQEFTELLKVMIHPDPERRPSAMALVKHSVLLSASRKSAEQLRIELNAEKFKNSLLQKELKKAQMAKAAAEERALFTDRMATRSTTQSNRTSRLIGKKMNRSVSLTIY
row,Compound,IC50 [µM]
1,"CCN(CC)CCOc1ccc(Nc2ncc(-c3cn[nH]c3)c(Nc3ccccc3OC)n2)cc1 [Example 3, N^2-(4-{[2-(diethylamino)ethyl]oxy}phenyl)-N^4-[2-(methyloxy)phenyl]-5-(1H-pyrazol-4-yl)-2,4-pyrimidinediamine]",≤ 10
2,"CCN(CC)CCOc1ccc(Nc2ncc(-c3cncnc3)c(Nc3ccccc3OC)n2)cc1 [Example 8, N^2-(4-{[2-(diethylamino)ethyl]oxy}phenyl)-N^4-[2-(methyloxy)phenyl]-5,5′-bipyrimidine-2,4-diamine]",≤ 10
3,"CCC(C)NC(=O)c1ccccc1Nc1nc(Nc2ccc(Cn3cncn3)cc2)ncc1-c1cn[nH]c1 (stereo not drawn) [Example 25, N-(1-methylpropyl)-2-[(5-(1H-pyrazol-4-yl)-2-{[4-(1H-1,2,4-triazol-1-ylmethyl)phenyl]amino}-4-pyrimidinyl)amino]benzamide]",≤ 10
4,"Fc1cccc(CCNc2nc(Nc3ccc(Cn4cncn4)cc3)ncc2-c2cncnc2)c1 [Example 26, N^4-[2-(3-fluorophenyl)ethyl]-N^2-[4-(1H-1,2,4-triazol-1-ylmethyl)phenyl]-5,5′-bipyrimidine-2,4-diamine]",≤ 10
5,"COc1ccccc1Nc1nc(Nc2ccc(Cn3cncn3)cc2)ncc1-c1cncnc1 [Example 33, N^4-[2-(methyloxy)phenyl]-N^2-[4-(1H-1,2,4-triazol-1-ylmethyl)phenyl]-5,5′-bipyrimidine-2,4-diamine]",≤ 10
6,"CCN(CC)CCOC(=O)Nc1ccc(Nc2ncc(-c3cncnc3)c(Nc3ccccc3OC)n2)cc1 [Example 43, 2-(diethylamino)ethyl {4-[(4-{[2-(methyloxy)phenyl]amino}-5,5′-bipyrimidin-2-yl)amino]phenyl}carbamate]",≤ 10
7,"CCN(CC)CCOc1ccc(Nc2ncc(-c3cncnc3)c(Nc3cccc(C#N)c3)n2)cc1 [Example 44, 3-({2-[(4-{[2-(diethylamino)ethyl]oxy}phenyl)amino]-5,5′-bipyrimidin-4-yl}amino)benzonitrile]",≤ 10
8,"Cc1ncc(-c2cccc(Nc3nc(Nc4ccc(Cn5cncn5)cc4)ncc3-c3cncnc3)c2)s1 [Example 51, N^4-[3-(2-methyl-1,3-thiazol-5-yl)phenyl]-N^2-[4-(1H-1,2,4-triazol-1-ylmethyl)phenyl]-5,5′-bipyrimidine-2,4-diamine]",≤ 10
9,"COc1ccccc1Nc1nc(Nc2cccc(OCCN(C)C)c2)ncc1-c1cn[nH]c1 [Example 99, N^2-(3-{[2-(dimethylamino)ethyl]oxy}phenyl)-N^4-[2-(methyloxy)phenyl]-5-(1H-pyrazol-4-yl)-2,4-pyrimidinediamine hydrochloride]",≤ 10

# Next, values leading:
row,IC50 [µM],Compound
1,≤ 10,"CCN(CC)CCOc1ccc(Nc2ncc(-c3ccc4[nH]ncc4c3)c(Nc3ccccc3OC)n2)cc1 [Example 4, N^2-(4-[{2-(diethylamino)ethyl]oxy}phenyl)-5-(1H-indazol-5-yl)-N^4-[2-(methyloxy)phenyl]-2,4-pyrimidinediamine]"
2,≤ 10,"CCN(CC)CCOc1ccc(Nc2ncc(-c3cncc(OC)c3)c(Nc3ccccc3OC)n2)cc1 [Example 6, N^2-(4-{[2-(diethylamino)ethyl]oxy}phenyl)-N^4-[2-(methyloxy)phenyl]-5-[5-(methyloxy)-3-pyridinyl]-2,4-pyrimidinediamine]"
3,≤ 10,CCN(CC)CCOc1ccc(Nc2ncc(-c3ccc(O)cc3)c(Nc3ccccc3OC)n2)cc1 [Example 7]
4,≤ 10,"CCN(CC)CCOc1ccc(Nc2ncc(-c3cnc4ccccc4c3)c(Nc3ccccc3OC)n2)cc1 [Example 10, N^2-(4-{[2-(diethylamino)ethyl]oxy}phenyl)-N^4-[2-(methyloxy)phenyl]-5-(3-quinolinyl)-2,4-pyrimidinediamine]"
5,≤ 10,"CCN(CC)CCOc1ccc(Nc2ncc(-c3ccccc3Cl)c(Nc3ccccc3OC)n2)cc1 [Example 11, 5-(2-chlorophenyl)-N^2-(4-{[2-(diethylamino)ethyl]oxy}phenyl)-N^4-[2-(methyloxy)phenyl]-2,4-pyrimidinediamine]"
6,≤ 10,"CCN(CC)CCOc1ccc(Nc2ncc(-c3cnn(Cc4ccccc4)c3)c(Nc3ccccc3OC)n2)cc1 [Example 12, N^2-(4-{[2-(diethylamino)ethyl]oxy}phenyl)-N^4-[2-(methyloxy)phenyl]-5-[1-(phenylmethyl)-1H-pyrazol-4-yl]-2,4-pyrimidinediamine]"
7,≤ 10,"CCN(CC)CCOc1ccc(Nc2ncc(-c3cccc(CO)c3)c(Nc3ccccc3OC)n2)cc1 [Example 21, [3-(2-[(4-{[2-(diethylamino)ethyl]oxy}phenyl)amino]-4-{[2-(methyloxy)phenyl]amino}-5-pyrimidinyl)phenyl]methanol]"
8,≤ 10,"CCN(CC)CCOc1ccc(Nc2ncc(-c3cccc(N)c3)c(Nc3ccccc3OC)n2)cc1 [Example 35, 5-(3-aminophenyl)-N^2-(4-{[2-(diethylamino)ethyl]oxy}phenyl)-N^4-[2-(methyloxy)phenyl]-2,4-pyrimidinediamine]"
9,≤ 10,"CCN(CC)CCOc1ccc(Nc2ncc(-c3cccc(C(N)=O)c3)c(Nc3ccccc3OC)n2)cc1 [Example 63, 3-(2-[(4-{[2-(diethylamino)ethyl]oxy}phenyl)amino]-4-{[2-(methyloxy)phenyl]amino}-5-pyrimidinyl)benzamide]"
